From US20260335344A1, “NOVEL FORMULATIONS AND USES” (DANSTAR FERMENT AG, priority 2022, published 2026)
Entries after “also recorded” stand apart in the source; their conditions may differ.

Assays:
Streptococcus mitis = experiment: Relative quantity of Streptococcus mitis by metagenomic (16S rRNA) sequencing after L-arabinose treatment; format: cell-based; settings: for relative quantity of Streptococcus mitis / increase of relative quantity of Streptococcus mitis: vs control; for increase of relative quantity of Streptococcus mitis: statistically increases
Source text: (§1) The objective of the experiments is to evaluate the effect of L-arabinose at different concentrations on a bacterial pool mimicking the skin microbiota by quantification of the bacterial mix using metagenomic sequencing. Five different types of bacteria are obtained from ATCC®: Micrococcus luteus (Cat. No. 4698), Corynebacterium striatum (Cat. No. BAA-1293), Staphylococcus epidermidis (Cat. No. 12228), Acinetobacter baumannii (Cat. No. 19606) and Streptococcus mitis (Cat. No. NCIMB-13770). The bacteria are common skin bacteria, selected to roughly mimic the skin microbiota. The bacteria are grown on specific media, either solid media (Brain Heart Infusion (BHI) Agar from Condalab (Cat. No. 1048.00) or Trypticase Soy (TS) Agar from Condalab (Cat. No. 1068.00)) or on liquid media (either Brain Heart Infusion Broth from Condalab (Cat. No. 1400.00) or Trypticase Soy Broth from Condalab (Cat. No. 1224.00)). The bacteria culture is performed according to the ATCC instructions and adapted to the specific conditions of each bacterium: all bacteria are grown in BHI medium at 37° C. in an aerobic environment shaking at 120 rpm, except for Streptococcus mitis which requires an anaerobic environment, so without shaking and with paraffin oil from Sigma-Aldrich (Cat. No. 185812) above the medium to cut off contact with air.
(§2) Growth kinetics are carried out for each bacterium to determine their different growth phases and in particular the time needed to reach the exponential phase. Aerobically growing bacteria are plated on solid medium and then a colony is inoculated into 10 mL of liquid medium. An OD at 600 nm is then taken at regular time intervals from T0, the inoculation time, to obtain a growth curve until reaching the stationary phase. Anaerobically growing bacteria are directly inoculated at 500 μL into 9.5 mL of medium.
(§3) Bacteria are treated during 6 hours with L-arabinose, diluted in culture medium. L-Arabinose is first resuspended in culture medium at a concentration of 5%. The following dilutions are directly realized in culture medium at the following concentrations: 3.5%, 2%, 1% and 0.5%.
(§4) Each bacterium from the mix is initially grown independently. Once the exponential phase starts, Corynebacterium striatum, Micrococcus luteus and Staphylococcus epidermidis are mixed and grown in the presence or not of the L-arabinose at different concentrations for 6 hours, before reaching the stationary phase. Acinetobacter baumannii and Streptococcus mitis are grown independently with the L-arabinose due to their specific nature (Biosafety Level 2 (BSL-2) bacteria and anaerobic growth for Streptococcus mitis) and pulled in the final mix. Then, the mix is centrifugated and sent to sequencing. Bacterial DNA is isolated, sequenced, and 16S rRNA sequences are matched to taxonomic databases.
(§5) The statistical analysis for FIGS. 2-5 is performed using two-tailed unpaired T-test vs NT-NS (*p-value<0.05, **p-value<0.01, ***p-value<0.001).
FIG. 5 depicts the relative quantity of Streptococcus mitis at different concentrations of L-arabinose. Relative Streptococcus mitis abundance is compared in all samples after metagenomic sequencing. Bacteria are treated with L-arabinose at 5 concentrations: 0.5%, 1%, 2%, 3.5% and 5%. Only the OTU identifying the Streptococcus mitis genera is represented.

[1] = system: Staphylococcus epidermidis; experiment: Relative quantity of Staphylococcus epidermidis by metagenomic (16S rRNA) sequencing after L-arabinose treatment; format: cell-based; settings: 6 hours, vs control
Source text: as §1, with “The bacteria culture is performed according to the ATCC instructions and adapted to the specific conditions of each bacterium: all bacteria are grown in BHI medium at 37° C. in an aerobic environment shaking at 120 rpm, except for Streptococcus mitis which requires an anaerobic environment, so without shaking and with paraffin oil from Sigma-Aldrich (Cat. No. 185812) above the medium to cut off contact with air.” left out
FIG. 4 depicts the relative quantity of Staphylococcus epidermidis at different concentrations of L-arabinose. […]

Acinetobacter baumannii = experiment: Relative quantity of Acinetobacter baumannii by metagenomic (16S rRNA) sequencing after L-arabinose treatment; format: cell-based
Source text: as §1, §2, §3, §4
FIG. 2 depicts the relative quantity of Acinetobacter baumannii at different concentrations of L-arabinose. Relative Acinetobacter baumannii abundance is compared in all samples after metagenomic sequencing. Bacteria are treated with L-arabinose at 5 concentrations: 0.5%, 1%, 2%, 3.5% and 5%. Only the OTU identifying the Acinetobacter baumannii genera is represented.
as §5

[2] = system: bacterial pool mimicking the skin microbiota; experiment: Relative quantity of bacteria in the skin microbiota mix by metagenomic sequencing; format: cell-based; settings: 6 hours
Source text: as §1, §2, §3, §4
FIG. 6 depicts the relative quantity of bacteria in the skin microbiota mix at different concentrations of L-arabinose. Relative bacteria abundance is detected in all samples after metagenomic sequencing. The bacteria seeded in the mix are Micrococcus luteus, Corynebacterium striatum, Staphylococcus epidermidis, Acinetobacter baumannii and Streptococcus mitis. Bacteria are treated with L-arabinose at 5 concentrations: 0.5%, 1%, 2%, 3.5% and 5%. All the OTUs detected are sorted by genera to be able to differentiate all the bacteria present in every sample.

intestinal sucrase = settings: role: inhibitor; substrate sucrose; dietary supplement use; cited from earlier work
Micrococcus luteus = experiment: Relative quantity of Micrococcus luteus by metagenomic (16S rRNA) sequencing after L-arabinose treatment; format: cell-based; settings: 6 hours, vs control
Source text: as §1, §2, §3, §4, §5
FIG. 3 depicts the relative quantity of Micrococcus luteus at different concentrations of L-arabinose. Relative Micrococcus luteus abundance is compared in all samples after metagenomic sequencing. Bacteria are treated with L-arabinose at 5 concentrations: 0.5%, 1%, 2%, 3.5% and 5%. Only the OTU identifying the Micrococcus luteus genera is represented.

[3] = 0.5% to 5% L-arabinose, 6 hours

With `O=C[C@H](O)[C@@H](O)[C@@H](O)CO` [L-arabinose] the “relative quantity of Streptococcus mitis” value (Streptococcus mitis; 0.5% L-arabinose, 6 hours) was “tends to decrease”, the “effect on Streptococcus mitis (dose dependence)” value (Streptococcus mitis; [3]) was “dose-dependent effect” and the “relative quantity of Streptococcus mitis” value (Streptococcus mitis; 1% L-arabinose, 6 hours) was “tends to decrease”. For the same compound, the “relative quantity of Streptococcus mitis” value (Streptococcus mitis; 2% L-arabinose, 6 hours) was “the same than the control”, the “increase of relative quantity of Streptococcus mitis” value (Streptococcus mitis; 3.5% L-arabinose, 6 hours) was “more than 2 times” and the “increase of relative quantity of Streptococcus mitis” value (Streptococcus mitis; 5% L-arabinose, 6 hours) was “more than 2 times”. The “effect on Streptococcus mitis” value (Streptococcus mitis; higher concentrations of L-arabinose (3.5% and 5%)) was “promotes Streptococcus mitis”, the “relative quantity of Staphylococcus epidermidis” value ([1]; 0.5% L-arabinose) was “tendency to decrease” and the “relative quantity of Staphylococcus epidermidis” value ([1]; other concentrations (1%, 2%, 3.5%, 5%) of L-arabinose) was “no statistical differences”. The “effect on Acinetobacter baumannii” value (Acinetobacter baumannii; 0.5% L-arabinose) was “promotes Acinetobacter baumannii”, the “increase of relative quantity of Acinetobacter baumannii compared to the NT-NS control” value (Acinetobacter baumannii; 0.5% L-arabinose, 6 hours, vs NT-NS control) was 7% and the “effect on Acinetobacter baumannii (dose dependence)” value (Acinetobacter baumannii; [3]) was “dose-dependent effect”. The “relative quantity of Acinetobacter baumannii” value (Acinetobacter baumannii; 1% L-arabinose, 6 hours, vs NT-NS control) was “the same than the control”, the “relative quantity of Acinetobacter baumannii” value (Acinetobacter baumannii; 2% L-arabinose, 6 hours, vs NT-NS control) was “the same than the control” and the “decrease of relative quantity of Acinetobacter baumannii compared to the NT-NS control” value (Acinetobacter baumannii; 5% L-arabinose, 6 hours, vs NT-NS control, statistically decreases) was “up to 7%”. The “relative quantity of bacteria in the skin microbiota mix” value (shortened to “relative quantity of bacteria”) ([2]; 0.5% L-arabinose) was “Acinetobacter baumannii is outgrowing the other bacteria”, the “homeostasis of the skin microbiota” value ([2]; 1% L-arabinose) was “maintaining the homeostasis of skin microbiota; also recorded: safekeeping the homeostasis of the skin microbiota” and the “difference of the bacterial mix compared to the NT-NS control” value ([2]; 1% or 2% L-arabinose, vs NT-NS control) was “no significant difference”. The “homeostasis of the skin microbiota” value ([2]; 2% L-arabinose) was “maintaining the homeostasis of skin microbiota; also recorded: safekeeping the homeostasis of the skin microbiota”, the “relative quantity of bacteria” value ([2]; 3.5% L-arabinose) was “Streptococcus mitis is fast growing at the expense of Acinetobacter baumannii” and the “relative quantity of bacteria” value ([2]; 5% L-arabinose) was “Streptococcus mitis is fast growing at the expense of Acinetobacter baumannii”. The “inhibition of sucrose absorption by inhibiting intestinal sucrase” value (intestinal sucrase) was “ability to inhibit absorption of sucrose”, the “relative quantity of Micrococcus luteus” value (Micrococcus luteus; 0.5% L-arabinose) was “inhibit Micrococcus luteus; also recorded: statistically decreases” and the “relative quantity of Micrococcus luteus” value (Micrococcus luteus; 1% L-arabinose) was “no statistically significant change”. The “relative quantity of Micrococcus luteus” value (Micrococcus luteus; 2% L-arabinose) was “statistically significant increase”, the “relative quantity of Micrococcus luteus” value (Micrococcus luteus; 3.5% L-arabinose) was “no statistically significant change” and the “relative quantity of Micrococcus luteus” value (Micrococcus luteus; 5% L-arabinose) was “no statistically significant change”.
